Values quoted from earlier work as cited in patent US8637323B2, “Fluorescent nitric oxide probes and associated methods” (Board of Regents, The University of Texas System, priority 2010, dated 2014).

Key:
[1] = calculated with published photophysical parameters

For `CC(=O)Oc1ccc2c(c1)Oc1cc(OC(C)=O)ccc1C21OC(=O)c2cc(N)c(N)cc21` [DAF-2 DA], the “NO concentration giving a fluorescence signal comparable to 1 mM DHA” value is given as roughly 300 nM and the fluorescence enhancement [1] is given as “ca. 200 fold”.
